Source: patent US12043599B2, “Herbicidal compounds” (SYNGENTA PARTICIPATIONS AG, priority 2018, dated 2024)

Assays:
Format in all cases: in vivo
Settings in all cases: 250 g/h, evaluated after 13 days
[1] = system: Alopecurus myosuroides (ALOMY); test: Pre-emergence herbicidal glasshouse test, percentage damage
Outline: (§1)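 Compounds applied at 250 g/h, formulated in 50:50 acetone/water plus 0.5% Tween 20, onto potted plants one day (pre-emergence) or 8 days (post-emergence) after sowing. Scoring of damage at day 13 used a five-point scale.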

[2] = system: Avena fatua (AVEFA); test: as above
Outline: as §1

[3] = system: Echinochloa crus-galli (ECHCG); test: as above
Outline: as §1

[4] = system: Lolium perenne (LOLPE); test: as above
Outline: as §1

[5] = system: Setaria faberi (SETFA); test: as above
Outline: as §1

[6] = system: Alopecurus myosuroides (ALOMY); test: Post-emergence herbicidal glasshouse test, percentage damage
Outline: as §1

[7] = system: Avena fatua (AVEFA); test: as above
Outline: as §1

[8] = system: Echinochloa crus-galli (ECHCG); test: as above
Outline: as §1

[9] = system: Lolium perenne (LOLPE); test: as above
Outline: as §1

[10] = system: Setaria faberi (SETFA); test: as above
Outline: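 Wheat, barley and Setaria faberi were sprayed post-emergence after 8 days' growth (24/16 °C, 14 h light, 65% humidity) with compound in acetone/water (50:50) containing 0.5% Tween 20, at the indicated rates. On wheat, compounds were also applied with cloquintocet-mexyl at 50 g/ha. Damage was scored after 13 days on a five-point scale (5=80-100% to 1=0-19%).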

CC#Cc1cc(C)c(C2C(=O)CC3(CCN(C(=O)NC(=O)c4ccc(F)cn4)CC3)CC2=O)c(C)c1 [Compound A157]
5 (5=80-100%): ECHCG PRE percentage damage (five point scale) [3] | LOLPE PRE percentage damage (five point scale) [4] | SETFA PRE percentage damage (five point scale) [5] | ALOMY POST percentage damage (five point scale) [6] | AVEFA POST percentage damage (five point scale) [7] | ECHCG POST percentage damage (five point scale) [8] | LOLPE POST percentage damage (five point scale) [9] | SETFA POST percentage damage (five point scale) [10]
3 (3=40-59%): ALOMY PRE percentage damage (five point scale) [1]
2 (2=20-39%): AVEFA PRE percentage damage (five point scale) [2]

CC#Cc1cc(C)c(C2C(=O)CC3(CCN(C(=O)C(C)(C)O)CC3)CC2=O)c(C)c1 [Compound A146]
5 (5=80-100%): ALOMY PRE percentage damage (five point scale) [1] | ECHCG PRE percentage damage (five point scale) [3] | LOLPE PRE percentage damage (five point scale) [4] | SETFA PRE percentage damage (five point scale) [5] | ALOMY POST percentage damage (five point scale) [6] | AVEFA POST percentage damage (five point scale) [7] | ECHCG POST percentage damage (five point scale) [8] | LOLPE POST percentage damage (five point scale) [9] | SETFA POST percentage damage (five point scale) [10]
4 (4=60-79%): AVEFA PRE percentage damage (five point scale) [2]

CC#Cc1cc(C)c(C2C(=O)CC3(CCN(C(=O)NC(=O)C(C)(C)C)CC3)CC2=O)c(OC)c1 [Compound A77]
5 (5=80-100%): ALOMY PRE percentage damage (five point scale) [1] | AVEFA PRE percentage damage (five point scale) [2] | ECHCG PRE percentage damage (five point scale) [3] | LOLPE PRE percentage damage (five point scale) [4] | SETFA PRE percentage damage (five point scale) [5] | ALOMY POST percentage damage (five point scale) [6] | AVEFA POST percentage damage (five point scale) [7] | ECHCG POST percentage damage (five point scale) [8] | LOLPE POST percentage damage (five point scale) [9] | SETFA POST percentage damage (five point scale) [10]

CC#Cc1cc(C)c(C2C(=O)CC3(CCN(C(=O)C4=CCCCO4)CC3)CC2=O)c(C)c1 [Compound A182]
3 (3=40-59%): AVEFA PRE percentage damage (five point scale) [2]
4 (4=60-79%): AVEFA POST percentage damage (five point scale) [7]
5 (5=80-100%): ALOMY PRE percentage damage (five point scale) [1] | ECHCG PRE percentage damage (five point scale) [3] | LOLPE PRE percentage damage (five point scale) [4] | SETFA PRE percentage damage (five point scale) [5] | ALOMY POST percentage damage (five point scale) [6] | ECHCG POST percentage damage (five point scale) [8] | LOLPE POST percentage damage (five point scale) [9] | SETFA POST percentage damage (five point scale) [10]

CC#Cc1cc(C)c(C2C(=O)CC3(CCN(C(=O)c4cnccn4)CC3)CC2=O)c(C)c1 [Compound A16]
5 (5=80-100%): ALOMY PRE percentage damage (five point scale) [1] | AVEFA PRE percentage damage (five point scale) [2] | ECHCG PRE percentage damage (five point scale) [3] | LOLPE PRE percentage damage (five point scale) [4] | SETFA PRE percentage damage (five point scale) [5] | ALOMY POST percentage damage (five point scale) [6] | AVEFA POST percentage damage (five point scale) [7] | ECHCG POST percentage damage (five point scale) [8] | LOLPE POST percentage damage (five point scale) [9] | SETFA POST percentage damage (five point scale) [10]
